Laboratory results as given in patent US12409183B2, “Method of using iloprost for treating frostbite” (BTG INTERNATIONAL INC., priority 2023, dated 2025).
Like-named read-outs stand apart in the source and are kept apart here.

Assays:
severe frostbite [1] = assay: systematic literature review and meta-analysis of amputation rates in severe frostbite; assay type: in vivo, human
Protocol: Frostbite is an injury caused by exposure of tissue to freezing temperatures. Severe frostbite may result in amputation leading to considerable morbidity. The objective was to identify and synthesize, via systematic literature review and meta-analysis (MA), evidence published on patient-level historical amputation rates in adults with severe frostbite treated with and without iloprost.
Methods: The literature review was conducted using Preferred Reporting Items for Systematic Reviews and Meta-Analyses (PRISMA) guidelines. It identified English-language articles published from Jan. 1, 2000 to Jul. 31, 2022 reporting amputation rates associated with iloprost and standard of care (SoC) treatments in severe frostbite. Study designs of interest were clinical trials (randomized and single arm), observational studies, and case series with at least 10 patients. MAs of proportions of patients with amputation were conducted. The published studies considered for the MA include:
Determination of Risk of Amputation: Table 1 discloses the historical amputation rates in severe frostbite patients. The studies listed in Table 1 was the basis of MA for determining the historical risk of amputation.
Sensitivity analyses reflect several ways of deriving the data (amputation rate for grade 3-4 frostbite) from the supplemental table in Cauchy 2011 (Cauchy et al., 2011).
Efficacy Proportion of Digits with Amputation: Data from 2 studies reporting the proportion of digits with amputations after receiving iloprost versus SoC for Grade 3/4 frostbite were included in the meta-analysis.

severe frostbite [2] = settings: cited from earlier work
[3] = IV bag solution stability of fully diluted ready-to-use iloprost (HPLC); assay type: physicochemical; settings: condition ia, 25° C./60% RH study; Table 1A
Protocol: Iloprost 100 μg/mL injection product is administered to patients by IV bag infusion over a period of six hours. The fully diluted ready to use iloprost is prepared in pharmacy cleanroom using sterile preparation standards (USP Chapter <797>) by pharmacy trained and licensed staff. The fully diluted ready to use drug product may be prepared several hours ahead of treatment with storage at ambient conditions or several days ahead of treatment with storage at refrigerated (2-8° C.) conditions. […] The bags are then manually mixed gently to provide a uniform solution. Administration IV bags were prepared and stored at several conditions with routine sampling for assay testing for stability under i) 25° C./60% RH, ii) 5° C. for 5 days to 25° C./60% RH, iii) 5° C. for 8 days to 25° C./60% RH. […] Sampling time for condition […], and 24 h Sampling time for ib): 8 h, 12 h, 48 h, and 96 h Sampling time for condition ii): 5 days (at the end of storage in 2-8° C. stability chamber), 5 days and 8 h, and 5 days and 12 h Sampling time for condition iii): 8 days (at the end of storage in 2-8° C. stability chamber), 8 days and 8 h, and 8 days and 12 h Sample Analysis: Samples were analyzed by HPLC using a validated method (validation protocol not shown). […] The % Initial (initial concentration) of each stored sample was determined per the equation below: […]

[4] = iloprost infusion; ratio x:1; cited from earlier work
[5] = Cauchy 2011, iloprost alone and iloprost+tPA combined (n=177)

For CC#CCC(C)[C@H](O)/C=C/[C@@H]1[C@H]2C/C(=C/CCCC(=O)O)C[C@H]2C[C@H]1O (stereo partly drawn) [iloprost, (5E)-5-[(3aS,4R,5R,6aS)-5-hydroxy-4-[(E,3S)-3-hydroxy-4-methyloct-1-en-6-ynyl]-3,3a,4,5,6,6a-hexahydro-1H-pentalen-2-ylidene]pentanoic acid], the “odds ratio (OR) of digit amputation, iloprost+tPA patients of Cauchy 2011 added” value (severe frostbite [1]; iloprost alone and iloprost plus tPA vs SoC, 95% CI: 0.001, 1.12, p=0.057, FIG. 4) was 0.034, the “odds ratio (OR) of digit amputation, base-case” value (severe frostbite [1]; iloprost alone vs SoC, 2 studies meta-analyzed, 95% CI: 0.002-0.966, p=0.047, FIG. 3) was 0.047 and the “proportion of patients with amputation, pooled arm-level data” value (severe frostbite [1]; meta-analysis, random effects, 95% CI: 0-45%, FIG. 2) was 15%. For the same compound, the “advantage for iloprost over SoC (reduction in amputation), base-case” value (severe frostbite [1]; studies with severe frostbite, no alprostadil, 95% CI: 6-73%, p=0.02) was 39%, the “Amputation Rate: patients considered likely to receive amputation” value (severe frostbite [2]; Cauchy 2011, open label RCT, severe (grades 3 or 4) frostbite, with SoC after rewarming, radiotracer anomaly in technetium scintigraphy after 8 days of treatment) was 0 patients and the digits with amputation (severe frostbite [2]; Cauchy 2011, Grade 3/4 frostbite, iloprost alone) was “zero out of 78”. The digit amputations (severe frostbite [2]; [5]) was 1.3%, the “number of digit amputations” value (severe frostbite [2]; [5]) was 3 and the digits with amputation (severe frostbite [2]; Crooks 2022, Grade 3-4 frostbite, minority of iloprost patients also received tPA (5 of 26)) was 31.1%. The patients with amputation (severe frostbite [2]; Poole 2021, iloprost plus SoC, with or without alteplase and heparin) was 33%, the “safety events associated with iloprost” value (severe frostbite [2]; three iloprost frostbite studies, headache, flushing, palpitations/tachycardia, nausea and vomiting) was “generally mild” and the “% initial results for all of the IV bag preparations (range)” value [3] was 94.2-94.9%. For the same compound, the “ratio of antiaggregatory:vasodilatory potency in vivo” value [4] was 2-7.
